# Measured values as given in patent US11364229B2, “Triple combination formulations for antiemetic therapy” (LEIUTIS PHARMACEUTICALS PVT, LTD, priority 2017, dated 2022).
# Test: Effect of Meglumine on solubility (stressed at 60° C. for 24 hours, filtered)
# Assay type: physicochemical
# Settings: Arginine+Aspartic acid buffer system
# Protocol: The samples were stressed at 60° C. for 24 hours and were analyzed after filtration.
structure (smiles),measurement,value
CNC[C@H](O)[C@@H](O)[C@H](O)[C@H](O)CO [meglumine],effect on solubility of Aprepitant in the buffer system,improves the solubility of Aprepitant
